43 compounds from patent EP2929883A1, “Pyrazole derivatives as dihydroorotate dehydrogenase (DHODH) inhibitors” (INSTITUT PASTEUR, priority 2014, dated 2015) can be followed below.

This test deals with measles virus. The test can be described thus: microbe, parasite or virus in culture. Particulars: Measles morbillivirus, 24 h.

Structures are written as SMILES. In brackets after ≈: the same amount, converted by molar mass.

In turn, `Cc1c(Oc2cccc(F)c2F)c(OC(C)C)nn1-c1ccc(C2CC2)cn1` [example 16, 5-cyclopropyl-2-(4-(2,3-difluorophenoxy)-3-isopropoxy-5-methyl-1H-pyrazol-1-yl)pyridine] gave an MIC50 of 0.0005 to 0.05 µM (≈ 0.000193 to 0.0193 µg/mL).

With `CCc1cnc(-n2nc(OC(C)C)c(Cc3cccc(OC)c3)c2C)nc1` [example 102, 5-ethyl-2-(3-isopropoxy-4-(3-methoxybenzyl)-5-methyl-1H-pyrazol-1-yl)pyrimidine], the MIC50 is 0.0005 to 0.05 µM (≈ 0.000183 to 0.0183 µg/mL).

Compound `CC(C)Oc1nn(-c2ncc(C3CC3)cc2F)cc1Oc1ccccc1` [example 70, 5-cyclopropyl-3-fluoro-2-(3-isopropoxy-4-phenoxy-1H-pyrazol-1-yl)pyridine] came in with an MIC50 of 0.0005 to 0.05 µM (≈ 0.000177 to 0.0177 µg/mL).

Consider `CCOc1nn(-c2ncc(CC)cn2)c(C)c1-c1ccccc1` [example 153, 2-(3-ethoxy-5-methyl-4-phenyl-1H-pyrazol-1-yl)-5-ethylpyrimidine], for which the MIC50 lay within 0.5 to 5 µM (≈ 0.154 to 1.54 µg/mL).

The compound `CCOc1nn(-c2ncc(CC)cn2)c(C)c1Oc1cccc(Cl)c1Cl` [example 80, 2-(4-(2,3-dichlorophenoxy)-3-ethoxy-5-methyl-1H-pyrazol-1-yl)-5-ethylpyrimidine] gave an MIC50 of 0.05 to 0.5 µM (≈ 0.0197 to 0.197 µg/mL).

For `CCOc1nn(-c2ccc(C)cn2)c(C)c1Cc1ccccc1` [example 31, 2-(4-benzyl-3-ethoxy-5-methyl-1H-pyrazol-1-yl)-5-methylpyridine], the MIC50 is 0.5 to 5 µM (≈ 0.154 to 1.54 µg/mL).

In the case of `CCOc1nn(-c2ccccn2)c(C)c1-c1ccccc1Cl` [example 155, 2-(4-(2-chlorophenyl)-3-ethoxy-5-methyl-1H-pyrazol-1-yl)pyridine], the MIC50 was above 5 µM.

In turn, `CCOc1nn(-c2ncc(CC)cn2)c(C)c1Oc1cc(Cl)ccc1Cl` [example 64, 2-(4-(2,5-dichlorophenoxy)-3-ethoxy-5-methyl-1H-pyrazol-1-yl)-5-ethylpyrimidine] came in with an MIC50 of 0.0005 to 0.05 µM (≈ 0.000197 to 0.0197 µg/mL).

`Cc1c(Oc2c(F)cccc2F)c(OC(C)C)nn1-c1ncc(C2CC2)cc1OCc1ccccc1` [example 186, 3-(benzyloxy)-5-cyclopropyl-2-(4-(2,6-difluorophenoxy)-3-isopropoxy-5-methyl-1H-pyrazol-1-yl)pyridine] displayed an MIC50 of 0.05 to 0.5 µM (≈ 0.0246 to 0.246 µg/mL).

The compound `CCOc1nn(-c2ccc(Cl)cn2)c(C)c1Cc1ccccc1` [example 39, 2-(4-benzyl-3-ethoxy-5-methyl-1H-pyrazol-1-yl)-5-chloropyridine] yielded an MIC50 of 0.5 to 5 µM (≈ 0.164 to 1.64 µg/mL).

On to `Cc1c(Oc2c(F)cccc2F)c(OC(C)C)nn1-c1ncc(C2CC2)cc1O` [example 187, 5-cyclopropyl-2-(4-(2,6-difluorophenoxy)-3-isopropoxy-5-methyl-1H-pyrazol-1-yl)pyridin-3-ol], for which the MIC50 lay in the range of 0.0005 to 0.05 µM (≈ 0.000201 to 0.0201 µg/mL).

The compound `Cc1c(Oc2c(F)cccc2F)c(OC(C)C)nn1-c1cnc(Br)cn1` [example 48, 2-bromo-5-(4-(2,6-difluorophenoxy)-3-isopropoxy-5-methyl-1H-pyrazol-1-yl)pyrazine] displayed an MIC50 of 0.5 to 5 µM (≈ 0.213 to 2.13 µg/mL).

Regarding `CCOc1nn(-c2ccc(C3CC3)cn2)c(C)c1Cc1ccccc1` [example 172, 2-(4-benzyl-3-ethoxy-5-methyl-1H-pyrazol-1-yl)-5-cyclopropylpyridine], the MIC50 fell in the range of 0.05 to 0.5 µM (≈ 0.0167 to 0.167 µg/mL).

As for `CCOc1nn(-c2ncc(CC)cn2)c(C)c1Oc1ccc(C(F)(F)F)cc1` [example 83, 2-(3-ethoxy-5-methyl-4-(4-(trifluoromethyl)phenoxy)-1H-pyrazol-1-yl)-5-ethylpyrimidine], the MIC50 is above 5 µM.

With `CCCc1cnc(-n2nc(OC(C)C)c(Oc3c(F)cccc3F)c2C)nc1O` [example 117A, 2-(4-(2,6-difluorophenoxy)-3-isopropoxy-5-methyl-1H-pyrazol-1-yl)-5-propylpyrimidin-4-ol], the MIC50 lay in the range of 0.05 to 0.5 µM (≈ 0.0202 to 0.202 µg/mL).

`Cc1nn(-c2ccc(Br)cn2)c(OC(C)C)c1Oc1c(F)cccc1F` [example 60, 5-bromo-2-(4-(2,6-difluorophenoxy)-5-isopropoxy-3-methyl-1H-pyrazol-1-yl)pyridine] came in with an MIC50 above 5 µM.

The compound `CCOc1nn(-c2ncc(C)cn2)c(C)c1Cc1ccccc1` [example 171, 2-(4-benzyl-3-ethoxy-5-methyl-1H-pyrazol-1-yl)-5-methylpyrimidine] returned an MIC50 of 0.0005 to 0.05 µM (≈ 0.000154 to 0.0154 µg/mL).

For `CCOc1nn(-c2ncc(CC)cn2)c(C)c1Oc1ccccc1C(F)(F)F` [example 82, 2-(3-ethoxy-5-methyl-4-(2-(trifluoromethyl)phenoxy)-1H-pyrazol-1-yl)-5-ethylpyrimidine], the MIC50 was in the range of 0.5 to 5 µM (≈ 0.196 to 1.96 µg/mL).

As for `CCOc1cc(-c2ccc(Cl)cc2)n(-c2ccccn2)n1` [example 147, 2-(5-(4-chlorophenyl)-3-ethoxy-1H-pyrazol-1-yl)pyridine], the MIC50 is above 5 µM.

Turning to `CCCc1cnc(-n2nc(OCC)c(Cc3ccccc3)c2C)nc1` [example 27, 2-(4-benzyl-3-ethoxy-5-methyl-1H-pyrazol-1-yl)-5-propylpyrimidine], the MIC50 lay in the range of 0.0005 to 0.05 µM (≈ 0.000168 to 0.0168 µg/mL).

Regarding `CCOc1nn(-c2ccc(C3CC3)cn2)c(C)c1Oc1cccc(Cl)c1Cl` [example 49, 5-cyclopropyl-2-(4-(2,3-dichlorophenoxy)-3-ethoxy-5-methyl-1H-pyrazol-1-yl)pyridine], the MIC50 was in the range of 0.0005 to 0.05 µM (≈ 0.000202 to 0.0202 µg/mL).

The compound `CCc1cnc(-n2nc(OCCO)c(Cc3ccccc3)c2C)nc1` [example 193, 2-(4-benzyl-1-(5-ethylpyrimidin-2-yl)-5-methyl-1H-pyrazol-3-yloxy)ethanol] returned an MIC50 of 0.05 to 0.5 µM (≈ 0.0169 to 0.169 µg/mL).

Compound `CCc1ccc(-n2nc(OC(C)C)c(Oc3c(F)cccc3F)c2C)cn1` [example 129, 5-(4-(2,6-difluorophenoxy)-3-isopropoxy-5-methyl-1H-pyrazol-1-yl)-2-ethylpyridine] yielded an MIC50 of 0.0005 to 0.05 µM (≈ 0.000187 to 0.0187 µg/mL).

Take `CCOc1nn(-c2ccccn2)c(C)c1-c1cccc(C(F)(F)F)c1` [example 158, 2-(3-ethoxy-5-methyl-4-(3-(trifluoromethyl)phenyl)-1H-pyrazol-1-yl)pyridine]: the MIC50 is above 5 µM.

Regarding `CCOc1nn(-c2ncccn2)c(C)c1Cc1ccccc1` [example 123, 2-(4-benzyl-3-ethoxy-5-methyl-1H-pyrazol-1-yl)pyrimidine], the MIC50 was 0.5 to 5 µM (≈ 0.147 to 1.47 µg/mL).

Take `COc1nn(-c2ncc(C3CC3)cn2)c(C)c1Cc1ccccc1` [example 138, 2-(4-benzyl-3-methoxy-5-methyl-1H-pyrazol-1-yl)-5-cyclopropylpyrimidine]: the MIC50 was in the range of 0.05 to 0.5 µM (≈ 0.016 to 0.16 µg/mL).

For the compound `CCc1cnc(-n2nc(OC(C)C)c(Oc3c(F)cccc3F)c2C)c(F)c1` [example 5A, 2-(4-(2,6-difluorophenoxy)-3-isopropoxy-5-methyl-1H-pyrazol-1-yl)-5-ethyl-3-fluoropyridine], the MIC50 was 0.05 to 0.5 µM (≈ 0.0196 to 0.196 µg/mL).

Compound `COCc1c(Cc2ccccc2)c(OC(C)C)nn1-c1ncc(C2CC2)cn1` [example 168, 2-(4-benzyl-3-isopropoxy-5-(methoxymethyl)-1H-pyrazol-1-yl)-5-cyclopropylpyrimidine] gave an MIC50 of 0.05 to 0.5 µM (≈ 0.0189 to 0.189 µg/mL).

Compound `CC(C)Oc1nn(-c2ncc(C3CC3)cn2)cc1Sc1ccccc1` [example 104, 5-cyclopropyl-2-(3-isopropoxy-4-(phenylthio)-1H-pyrazol-1-yl)pyrimidine] had an MIC50 of 0.0005 to 0.05 µM (≈ 0.000176 to 0.0176 µg/mL).

Regarding `CCOc1nn(-c2ncc(C3CC3)cc2C#N)c(C)c1Cc1ccccc1` [example 36, 2-(4-benzyl-3-ethoxy-5-methyl-1H-pyrazol-1-yl)-5-cyclopropylnicotinonitrile], the MIC50 was in the range of 0.05 to 0.5 µM (≈ 0.0179 to 0.179 µg/mL).

`CCOc1nn(-c2ccc(C(C)(C)O)cn2)c(C)c1Cc1ccccc1` [example 34, 2-(6-(4-benzyl-3-ethoxy-5-methyl-1H-pyrazol-1-yl)pyridin-3-yl)propan-2-ol] showed an MIC50 above 5 µM.

`CCCCc1c(OCC)nn(-c2ncc(CC)cn2)c1C` [example 114, 2-(4-butyl-3-ethoxy-5-methyl-1H-pyrazol-1-yl)-5-ethylpyrimidine] yielded an MIC50 of 0.5 to 5 µM (≈ 0.144 to 1.44 µg/mL).

`CCN(CC)Cc1c(Cc2ccccc2)c(OC(C)C)nn1-c1ncc(C2CC2)cn1` [example 169, N-((4-benzyl-1-(5-cyclopropylpyrimidin-2-yl)-3-isopropoxy-1H-pyrazol-5-yl)methyl)-N-ethylethanamine] yielded an MIC50 above 5 µM.

In the case of `CCc1cnc(-n2nc(OC(C)C)c(Cc3ccc(OC)cc3)c2C)nc1` [example 111, 5-ethyl-2-(3-isopropoxy-4-(4-methoxybenzyl)-5-methyl-1H-pyrazol-1-yl)pyrimidine], the MIC50 is 0.05 to 0.5 µM (≈ 0.0183 to 0.183 µg/mL).

On to `CCOc1cc(Cc2ccccc2)n(-c2ncc(CC)cn2)n1` [example 2, 2-(5-benzyl-3-ethoxy-1H-pyrazol-1-yl)-5-ethylpyrimidine], for which the MIC50 is above 5 µM.

For the compound `Cc1ccc(-n2nc(OC(C)C)c(Oc3c(F)cccc3F)c2C)nc1` [example 9A, 2-(4-(2,6-difluorophenoxy)-3-isopropoxy-5-methyl-1H-pyrazol-1-yl)-5-methylpyridine], the MIC50 fell in the range of 0.0005 to 0.05 µM (≈ 0.00018 to 0.018 µg/mL).

As for `Cc1c(Oc2ccc(F)cc2F)c(OC(C)C)nn1-c1ccc(C2CC2)cn1` [example 17, 5-cyclopropyl-2-(4-(2,4-difluorophenoxy)-3-isopropoxy-5-methyl-1H-pyrazol-1-yl)pyridine], the MIC50 lay in the range of 0.05 to 0.5 µM (≈ 0.0193 to 0.193 µg/mL).

In turn, `CCc1cnc(-n2[nH]c(=O)c(Cc3ccccc3)c2C)nc1` [example 135, 4-benzyl-1-(5-ethylpyrimidin-2-yl)-5-methyl-1H-pyrazol-3(2H)-one] came in with an MIC50 of 0.5 to 5 µM (≈ 0.147 to 1.47 µg/mL).

For `CC(C)Oc1nn(-c2ccc(C3CC3)cn2)cc1Oc1ccccc1F` [example 65, 5-cyclopropyl-2-(4-(2-fluorophenoxy)-3-isopropoxy-1H-pyrazol-1-yl)pyridine], the MIC50 was 0.0005 to 0.05 µM (≈ 0.000177 to 0.0177 µg/mL).

Compound `CCOc1nn(-c2ncc(Br)cn2)c(C)c1Cc1ccccc1` [example 42, 2-(4-benzyl-3-ethoxy-5-methyl-1H-pyrazol-1-yl)-5-bromopyrimidine] had an MIC50 of 0.05 to 0.5 µM (≈ 0.0187 to 0.187 µg/mL).

In turn, `CCOc1cc(-c2ccc(OC)cc2)n(-c2ccccn2)n1` [example 145, 2-(3-ethoxy-5-(4-methoxyphenyl)-1H-pyrazol-1-yl)pyridine] displayed an MIC50 above 5 µM.

The compound `CCOc1nn(-c2ncc(CC)cn2)cc1I` [example 107, 2-(3-ethoxy-4-iodo-1H-pyrazol-1-yl)-5-ethylpyrimidine] came in with an MIC50 above 5 µM.

`CC(C)Oc1nn(-c2ncc(C3CC3)cc2C#N)cc1Oc1ccccc1` [example 75, 5-cyclopropyl-2-(3-isopropoxy-4-phenoxy-1H-pyrazol-1-yl)nicotinonitrile] gave an MIC50 above 5 µM.
